Results: patent publication US20240173324A1, “COMBINATORY THERAPY FOR PREVENTING, INHIBITING, TREATING, OR REDUCING ANEURYSMS” (The Regents of the University of California, priority 2021, published 2024)
Where “and” joins values, the source holds several entries; their conditions need not be identical. Equal entries are not always repeated.

How the values were obtained:
AAA formation = conditions: both low and high dose of Nifedipine alone; earlier study; cited from earlier work
aortic H4B = assay: HPLC determination of aortic H4B bioavailability; type: in vivo, mice; conditions: FA 15 mg/kg/day oral
Method: After centrifugation, 10 μl of the supernatant was injected into a HPLC system equipped with a fluorescent detector (Schimadzu America Inc, Carlsbad, CA, USA). Excitation and emission wavelengths of 350 nm and 450 nm were used to measure H4B levels.

[1] = system: Ang II infused apoE null mice; assay: Verhoeff-Van Gieson (VVG) staining, medial elastin degradation; type: in vivo; conditions: FA 15 mg/kg/day oral
Method: To assess medial elastin degradation, VVG staining was performed using aortic sections from all experimental groups.
Paraffin embedded aortic sections were deparaffinized by sequential washes in xylene (2x), descending ethanol from 100%, 90%, 75% to 50%, and distilled water. Sections were stained in Verhoeff s solution for 70 min, followed by differentiation in 2% ferric chloride for 90 seconds. Sections were incubated with 5% sodium thiosulfate for 60 seconds, followed by counterstaining with Van Gieson's solution. Sections were then subjected to dehydration with 95% and 100% alcohol, and finally washed in xylene. After drying, sections were mounted with Permount mounting media (SP15-100, Thermo-Fisher Scientific, Pittsburgh, PA, USA), and images captured by a Nikon TE2000-U fluorescent microscope.

[2] = system: Ang II infused apoE null mice; assay: Incidence of AAA in Ang II infused apoE null mice (ultrasound and post-mortem inspection); type: in vivo
Description: The use of animals and experimental procedures were approved by the Institutional Animal Care and Usage Committee (IACUC) at the University of California Los Angeles (UCLA). Breeders of apoE null mice were purchased from Jackson Labs (Bar Harbor, ME, Strain B6.129P2-ApoEtmlUnc/J), and bred in house. Animals were kept in ventilated cages, with free access to water and standard chow under the standard care of Division of Laboratory Animal Medicine (DLAM) staff. Male apoE null mice of 6-8 months old were used for experimentation.
The animals receiving Ang II infusion were anesthetized in an isoflurane chamber with 5% isoflurane, and then moved to a nose cone with sustained supply of 1.5-2% isoflurane to maintain the anesthetic state. The back area between the shoulder blades was cleaned of hair and disinfected. Then a small incision was made at the cleaned site; the osmotic minipump (Alzet, model 2004) containing Ang II (1000 ng/kg/min, Sigma-Millipore, St. Louis, MO, USA) was subcutaneously implanted into the mice. The surgical wounds were closed with surgical staples, and then animals were allowed to recover in a heated cage.
At the end of the study period of 4 weeks, animals were euthanized with CO2. The aortas were rapidly removed from the body, rinsed with ice cold Krebs/HEPES buffer, and cleaned of connective tissue and fat. The incidence of AAA was determined by ultrasound assessment of abdominal aortic expansion as described above, and by direct inspection of the abdominal aortas post-mortem.

[3] = system: Ang II infused apoE null mice; assay: H&E staining of aortic sections, vascular remodeling; type: in vivo; conditions: FA 15 mg/kg/day oral
Description: To examine the extent of the vascular remodeling that occurred during AAA in the presence of various treatments, freshly isolated aortas were embedded in paraffin, sectioned and stained with hematoxylin-eosin (H&E).
At the end of the study period of 4 weeks, animals were euthanized with CO2. The aortas were rapidly removed from the body, rinsed with ice cold Krebs/HEPES buffer, and cleaned of connective tissue and fat. […] For histological analyses, small sections (5 mm) of the abdominal aortas of the suprarenal region were removed and fixed in 4% paraformaldehyde overnight, followed by incubation for 24 hours in 10% sucrose, and then embedded in paraffin. In the case of AAA, a center section of the AAA was used for these analyses. Sections were sliced at 5μm at UCLA Pathology Core, and subjected to hematoxylin-eosin (H&E) staining following standard protocol.

[4] = system: Ang II infused hph-1 mice; conditions: oral FA administration; cited from earlier work
[5] = system: Ang II-infused apoE null mice; conditions: oral FA administration, previously observed; cited from earlier work
[6] = system: Ang II infused apoE null mice; assay: Ultrasound detection of abdominal aortic size (enlargement of abdominal aortas); type: in vivo; conditions: FA 15 mg/kg/day oral; weekly ultrasound over 4 weeks; vs. apoE+Ang II
Method: The back area between the shoulder blades was cleaned of hair and disinfected. Then a small incision was made at the cleaned site; the osmotic minipump (Alzet, model 2004) containing Ang II (1000 ng/kg/min, Sigma-Millipore, St. Louis, MO, USA) was subcutaneously implanted into the mice. The surgical wounds were closed with surgical staples, and then animals were allowed to recover in a heated cage. […] The enlargement of abdominal aortas in various experimental groups was monitored using ultrasound. Animals were anesthetized with isoflurane and placed on a temperature-controlled table. Isoflurane levels were adjusted throughout the experiment to maintain heart rate between 400 and 500 bpm while keeping the animal sufficiently anesthetized. Hair was removed from the abdomen using a hair removal cream, and preheated ultrasound transmission gel was applied onto the abdomen area. An ultrasound probe was placed on the gel to visualize aorta transversely (Vevo 2100, MS400, 30 MHz. FUJIFILM VisualSonics, Inc., Toronto, Ontario, Canada). The aorta was identified using Doppler measurement for the presence of pulsatile flow.

[7] = system: Fbnic1^C1039G/+ Marfan Syndrome (MFS) mice; conditions: FA diet; cited from earlier work
[8] = system: total superoxide production in aortas; assay: Electron spin resonance determination of total aortic superoxide production; type: in vivo, mice; conditions: FA 15 mg/kg/day oral; ESR
Description: Therefore, changes in aortic total superoxide production and eNOS uncoupling activity from all treatment groups is examined herein. Freshly prepared aortic lysates were subjected to electron spin resonance (ESR) determination of superoxide production with and without L-NAME, an inhibitor of NOS. If eNOS is functional and coupled, its inhibition by L-NAME will increase the measured superoxide, as eNOS is producing NO to scavenge superoxide. However, if eNOS is dysfunctional, uncoupled and producing superoxide, its inhibition with L-NAME will lead to a decrease in measured superoxide.
Aortic superoxide production was determined by electron spin resonance (ESR). In brief, freshly isolated aortas were homogenized in lysis buffer containing 1:100 protease inhibitor cocktail (MilliporeSigma, P8340), centrifuged at 12,000 rpm for 15 min, and protein supernatant collected. After determination of protein concentration using a protein assay kit (Bio-Rad), five μg of the protein was loaded into ice-cold and nitrogen bubbled modified Krebs/HEPES buffer (KHB, in mmol/L: NaCl 99; KCl 4.7; MgSO41.2; KH2PO4 1.0; CaCl2 1.9; NaHCO3 25; glucose 11.1, NaHEPES 20) containing diethyldithiocarbamic acid (5 mmol/L), deferoxamine (25 mmol/L), and the superoxide specific spin trap methoxycarbonyl-2,2,5,5-tetramethylpyrrolidine (CMH, 500 μmol/L, Axxora, San Diego, CA, USA). […]

| SMILES | AAA formation (AAA formation) | Ang II induced H4B deficiency (aortic H4B) | elastin degradation featured by flattening and breakdown [1] | incidence of AAA ([2]; FA 15 mg/kg/day oral in chow, 4 weeks Ang II infusion, Ang II alone 85.71%) | numbers of animals developed AAA and animals examined ([2]; FA 15 mg/kg/day, b210 developed out of examined, b50 examined/developed) | vascular remodeling featured by elastic degradation and adventitial hypertrophy [3] | AAA formation [4] | aneurysm formation [5] | enlargement of abdominal aortas [6] | formation of TAA and AAA [7] | total superoxide production in aortas [8] |
| --- | --- | --- | --- | --- | --- | --- | --- | --- | --- | --- | --- |
| COC(=O)C1=C(C)NC(C)=C(C(=O)OC)C1c1ccccc1[N+](=O)[O-] [Nifedipine] | able to attenuate AAA formation |  |  |  |  |  |  |  |  |  |  |
| Nc1nc2ncc(CNc3ccc(C(=O)N[C@@H](CCC(=O)O)C(=O)O)cc3)nc2c(=O)[nH]1 [FA, folic acid] |  | significantly abrogated | significantly attenuated | 18.75% | 6 out of 32 and 32/6 | markedly attenuated | markedly attenuated | abrogated aneurysm formation | significantly attenuated | attenuated formation of TAA and AAA | markedly abrogated |
